This is an account of results in patent US9266840B2, “Bicyclic heterocyclic compound” (Astellas Pharma Inc., priority 2011, dated 2016).

Data set [1] deals with model with fibromyalgia caused by repeated reserpine administration. Briefly: Test for model with fibromyalgia caused by repeated reserpine administration (muscle tenderness threshold). In kind it is in vivo, rats (SD, male). As to conditions: 10 mg/kg orally, calculated point in time 60 min, healthy rat = 100%, reserpine + solvent = 0%. As for the experimental part:
Test Method 4: Test for Model with Fibromyalgia Caused by Repeated Reserpine Administration
This test was performed according to Pain, 2009, Vol. 146, p 26-33., by using rats (SD, male, 7-week old).
The threshold of muscle tenderness was measured according to the method of Schafers et al. (Pain, 2003, Vol. 104, p 579-588). A pressure stimulus slowly increasing up to 250 g was applied to the gastrocnemius muscle of the right lower leg of the rat. […] The measurement was performed 3 times for each point in time, and the average thereof was taken as a measured value.
A solvent (0.5% aqueous acetic acid) or reserpine (1 mg/kg) was subcutaneously administered to the back of the rat once a day for three days. The dose of both the solvent and reserpine administered was 1 mL per 1 kg of the body weight of the animal. 6 days after the beginning of the administration of the solvent or reserpine, the muscle tenderness threshold of each rat was measured, and the rats were grouped such that the difference in the average of threshold between the respective groups was reduced. The drug efficacy evaluation was performed on the next day. […] 30, 60, and 120 minutes after the administration, the muscle tenderness threshold was measured. For healthy rats, the drug was not administered, and only the muscle tenderness threshold was measured. […]

Data set [2] has as its target T1, recombinant human 11β-HSD2 (Homo sapiens, UniProt P80365).
T1 sequence (P80365 1-405): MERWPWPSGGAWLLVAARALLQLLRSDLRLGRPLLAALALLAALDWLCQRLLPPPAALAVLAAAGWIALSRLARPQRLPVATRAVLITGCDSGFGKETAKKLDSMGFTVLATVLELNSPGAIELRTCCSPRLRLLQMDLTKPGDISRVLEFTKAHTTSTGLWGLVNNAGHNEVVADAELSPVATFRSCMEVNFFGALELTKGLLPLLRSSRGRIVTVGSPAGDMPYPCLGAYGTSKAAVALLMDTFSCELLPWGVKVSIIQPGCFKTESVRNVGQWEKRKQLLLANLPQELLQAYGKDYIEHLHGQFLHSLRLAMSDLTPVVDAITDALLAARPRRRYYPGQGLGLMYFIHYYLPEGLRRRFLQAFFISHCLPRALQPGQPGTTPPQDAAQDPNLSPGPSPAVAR
Briefly: Human 11β-HSD2 inhibitory activity (HTRF). In kind it is biochemical. As to conditions: recombinant human 11β-HSD2, 200 nM cortisol, 200 μM NAD, 2 h 37° C. The protocol:
(§1) Test Method 1: Test for Measuring Human 11β-HSD1/11β-HSD2 Inhibitory Activity
(§2) 11β-HSD1 inhibitory activity was measured in the following order. In addition, an enzymatic reaction and assay was performed using a 384-well plate. The enzyme was prepared according to a document (Walker E. A. et al., Journal of Biological Chemistry, 2001, Vol. 276, p. 21343-21350). The reaction was performed in a manner in which various concentrations of test compounds were added to a reaction liquid including a 10 mM a phosphoric acid buffer (pH 6.6), 200 nM cortisone, 40 μM reduced nicotinamide adenine dinucleotide phosphate (NADPH), and recombinant human 11β-HSD1, followed by incubation for an hour at room temperature (10 μl/well). The test compound was dissolved in dimethylsulfoxide (DMSO), and the DMSO concentration was adjusted so as to be 1% in the reaction liquid. After the enzymatic reaction, cortisol was detected using Homogenous Time-Resolved Fluorescence (HTRF) to measure enzyme inhibitory activity. XL-665-labeled cortisol including 400 μM carbenoxolone and a cryptate-labeled cortisol antibody (CIS bio international) were added respectively to the plate at 5 μl/well, followed by incubation for 2 hours at room temperature, and then fluorescence intensity was measured using a fluorospectrometer (trade name: Discovery, manufactured by PerkinElmer Inc.), thereby calculating enzyme inhibitory activity from the ratio of fluorescence intensity between two wavelengths (665 nm/620 nm).
11β-HSD2 inhibitory activity was measured in the same manner as in the measurement of the 11β-HSD1 inhibitory activity, except for the conditions of the enzymatic reaction. The enzymatic reaction was performed in the manner in which various concentrations of test substances were added to a reaction liquid including 40 mM tris-hydrochloric acid buffer (Tris-HCl) (pH 8.0), 200 nM cortisol, 200 μM nicotinamide adenine dinucleotide (NAD), and recombinant human 11β-HSD2, followed by incubation for 2 hours at 37° C. (10 μl/well).
(§3) The results of measurement were calculated by obtaining the average of the values of three wells under the same condition. The ratio obtained when DMSO was added instead of the test compound was regarded as 0%, and the ratio obtained when 11β-HSD1 or 11β-HSD2 was not added was regarded as 100%, whereby a concentration at which the test compound suppresses the enzyme activity by 50% was calculated as IC50 of the inhibitory activity of the compound.
In general terms: In TR-FRET formats the signal depends on donor and acceptor labels being close together.

The target in data set [3] is T2, recombinant human 11β-HSD1 (Homo sapiens, UniProt P28845).
T2 construct: made in house
T2 sequence (P28845 whole entry): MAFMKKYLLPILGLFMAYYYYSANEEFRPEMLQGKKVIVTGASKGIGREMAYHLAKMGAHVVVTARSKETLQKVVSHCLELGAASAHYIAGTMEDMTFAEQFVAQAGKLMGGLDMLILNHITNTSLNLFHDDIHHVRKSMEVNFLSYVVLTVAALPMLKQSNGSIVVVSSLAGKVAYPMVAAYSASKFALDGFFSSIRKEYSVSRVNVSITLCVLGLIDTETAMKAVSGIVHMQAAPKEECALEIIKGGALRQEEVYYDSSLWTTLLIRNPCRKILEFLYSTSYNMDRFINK
Briefly: Human 11β-HSD1 inhibitory activity (HTRF cortisol detection). In kind it is biochemical. As to conditions: recombinant human 11β-HSD1, 200 nM cortisone, 40 μM NADPH, 1 h room temperature. The protocol:
as §1, §2, §3

In data set [4] the test system is spontaneous alternation behavior disorder induced by scopolamine. As to the kind of experiment: Test for spontaneous alternation behavior disorder induced by scopolamine (Y-maze). It counts as in vivo, male ddY mice. The note with it: oral administration, ddY mice, scopolamine 0.5 mg/kg i.p. The protocol:
Test Method 2: Test for Spontaneous Alternation Behavior Disorder Induced by Scopolamine Test drugs were orally administered to 5- to 7-week old male ddY mice. 10 minutes later, scopolamine was intraperitoneally administered to the animals at 0.5 mg/kg. 20 minutes later, the animal was put in Y-maze having arms with the same length and extending in three directions and allowed to freely explore for 8 minutes. During the exploration, spontaneous arm-alternating behavior (entering different arms 3 times consecutively) was counted to calculate the rate of spontaneous alternation (spontaneous alternation behavior/(number of times of entering−2)×100), thereby judging drug efficacy.

The test system of data set [5] is spinal nerve ligation model. As to the kind of experiment: Test for spinal nerve ligation model (von Frey hair test). In kind it is in vivo, rats (SD, male). The note with it: 1 mg/kg orally, 1 hour before evaluation, threshold of 50% retraction response, pseudo-operation = 100%, solvent = 0%. As for the experimental part:
Test Method 3: Test for Spinal Nerve Ligation Model This test was performed according to Pain, 1992, Vol. 50, p 355-363. The skin and muscle in the lumbar region of rats (SD, male, 5- to 6-week old) were excised under pentobarbital anesthesia, and a lumbar L6 transverse process was removed to expose lumbar nerves. L5 and L6 spinal nerves were ligated with a silk thread, and then the wound was sutured. The procedure was performed in the left side. In addition, in the case of pseudo-operation, the wound was sutured without performing nerve ligation. The drug efficacy was evaluated on the postoperative days 7 to 12 by von Frey hair test. The threshold of retraction response was calculated according to Journal of Neuroscience Methods, 1994, Vol. 53, p 55-63. By using 8 types of von Frey filaments (0.41 g to 15.14 g), the sole of the rat's hindlimb was stimulated, and the threshold of 50% retraction response was determined by an up-and-down method. […] The test substance was evaluated by calculating the improvement rate of the test substance-administered group, under the condition that the threshold of the procedure-performed limb of the pseudo-operation animal group was regarded as 100% and the threshold of the procedure-performed limb of the solvent-administered animal group having undergone operation was regarded as 0%.

The subject of data set [6] is cortisol in the brain homogenate. Briefly: Pharmacokinetic test under cortisone load (brain cortisol by ELISA). In kind it is in vivo, male ddY mice. As to conditions: Mus musculus; ddY mice, 1 mg/kg orally; cortisone 1 mg/kg i.p. after 30 min, brain collected 20 min later; read-out: inhibition rate (cortisol in brain). The protocol:
Test Method 6: Pharmacokinetic Test Under Cortisone Load
A 0.5% methyl cellulose solution or a 0.5% methyl cellulose suspension including the test substance was orally administered to 5-week old male ddY mice. After 30 minutes, cortisone was intraperitoneally administered at 1 mg/kg, and 20 minutes later, the brain was collected. A phosphoric acid buffer (pH 7.0) was added to the collected brain sample, in an amount that was 9 times the weight of the brain, thereby preparing 10% brain homogenate. The quantity of cortisol in the brain homogenate was determined by ELISA, and the inhibition rate resulting from the test substance was calculated, under the condition that the amount of cortisol produced from the mouse orally administered with 0.5% methyl cellulose was regarded as 100%.

Data set [7] can be described thus: Pharmacokinetic test (plasma and brain concentration, LC-MS/MS). The note with it: male, mouse, po, mice, 1 mg/kg orally, an hour after administration. In kind it is in vivo. The protocol: Test Method 5: Pharmacokinetic Test
A 0.5% methyl cellulose suspension including the test substance was orally administered to 5-week old male mice, and the blood and brain were collected after a certain time passed from the administration. The collected blood sample was treated with sodium heparin, and then the plasma was separated, thereby preparing a plasma sample. In addition, a phosphoric acid buffer (pH 7.0) was added to the collected brain sample, in an amount that was 4 times the weight of the brain, thereby preparing 20% brain homogenate. The concentration of the respective test substances in the plasma and brain was measured using LC-MS/MS. An hour after Example 8-1 was administered at 1 mg/kg, the concentration of the substance in the plasma was 153 ng/ml, and the concentration in the brain was 58 ng/ml.

Where two headings read alike, the source gives them in different places.

Regarding `N#Cc1cccc(F)c1-c1ccc(C(=O)N(C2CC2)C2CCc3[nH]ncc3C2)cc1` (single isomer, unassigned; (-)) [Example 7-1, (−)-2′-cyano-N-cyclopropyl-6′-fluoro-N-(4,5,6,7-tetrahydro-1H-indazol-5-yl)biphenyl-4-carboxamide], the “Maximum improvement rate % (applied dose)” value in data set [1] was 82 (10 mg/kg) %. Moreover, the half-inhibitory concentration (IC50) in data set [2] was more than 3 µM; in data set [3], 0.018 µM. Also, the “Dose improving minimum spontaneous alternation rate” value in data set [4] was 1.0 mg/kg. The “Improvement rate % (applied dose)” value in data set [5] is reported as 52 (1 mg/kg) %.
Regarding `CC(C)Oc1ccc(C(=O)N(C2CC2)C2CCc3[nH]ncc3C2)cc1` (single isomer, unassigned; (-)) [Example 8-1, (−)-N-cyclopropyl-4-isopropoxy-N-(4,5,6,7-tetrahydro-1H-indazol-5-yl)benzamide], the “Maximum improvement rate % (applied dose)” value in data set [1] was 104 (10 mg/kg) %. Besides, the IC50 in data set [2] is more than 30 µM; in data set [3], 0.026 µM. For the same compound, in data set [4], the “Dose improving minimum spontaneous alternation rate” value was determined as 0.3 mg/kg. Also, the inhibition at 1 mg/kg in data set [6] was 43%. For the same compound, in data set [5], the “Improvement rate % (applied dose)” value is 73 (1 mg/kg) %. Also, the concentration at 1 h in data set [7] (plasma, read-out: concentration of the substance in the plasma) was determined as 153 ng/mL; in data set [7] (brain homogenate, read-out: concentration in the brain) it was 58 ng/mL.
Consider `N#Cc1ccccc1-c1ccc(C(=O)N(C2CC2)C2CCc3[nH]ncc3C2)cc1` (stereo not shown) [Example 1, 2′-cyano-N-cyclopropyl-N-(4,5,6,7-tetrahydro-1H-indazol-5-yl)biphenyl-4-carboxamide], for which the half-maximal inhibitory concentration (IC50) in data set [2] is more than 30 µM; in data set [3], 0.048 µM.
Take `COc1cc(OC(C)C)ccc1C(=O)N(C1CC1)C1CCc2[nH]ncc2C1` (stereo not shown) [Example 5, N-cyclopropyl-4-isopropoxy-2-methoxy-N-(4,5,6,7-tetrahydro-1H-indazol-5-yl)benzamide]: the IC50 in data set [3] worked out at 0.056 µM.
On to `O=C(c1ccc(-c2ccccc2F)o1)N(C1CC1)C1CCc2[nH]ncc2C1` (stereo not shown) [Example 27], for which the results for the IC50 in data set [2] and in data set [3] were more than 3 µM and 0.062 µM, respectively.
For the compound `Cc1cc(C(=O)N(C2CC2)C2CCc3n[nH]cc3C2)c(C)n1Cc1ccc(F)cc1F` (stereo not shown) [Example 30], the IC50 is more than 3 µM in data set [2] and 0.028 µM in data set [3].
As to `Cn1ccc2c(C(=O)N(C3CC3)C3CCc4[nH]ncc4C3)cccc21` (stereo not shown) [Example 81], the IC50 in data set [2] is more than 30 µM; in data set [3], 0.024 µM.
With `COc1ccc(C(=O)N(C2CC2)C2CCc3[nH]ncc3C2)c2ccn(C)c12` (stereo not shown) [Example 132], the values for the IC50 in data set [2] and in data set [3] were more than 30 µM and 0.038 µM, respectively.
In the same order, the values of `CC(F)(F)CCCn1ncc2c(C(=O)N(C3CC3)C3CCc4[nH]ncc4C3)cccc21` (stereo not shown) [Example 159] are more than 30 µM and 0.04 µM.
On to `N#Cc1cc(F)ccc1-c1ccc(C(=O)N(C2CC2)C2CCc3[nH]ncc3C2)cc1` (stereo not shown) [Example 176], for which the 50% inhibitory concentration (IC50) in data set [3] was found to be 0.088 µM.
On the same count and under the same terms, in the case of `N#Cc1ccccc1-c1ccc(C(=O)N(C2CC2)C2CCc3[nH]ncc3C2)c(F)c1` (stereo not shown) [Example 190] it was 0.025 µM; in that of `O=C(c1ccc(-c2c(F)cccc2F)cc1)N(C1CC1)C1CCc2[nH]ncc2C1` (stereo not shown) [Example 216], 0.043 µM.
The same measure, in the same setting: as for `O=C(c1ccc(-c2c(F)cncc2F)cc1)N(C1CC1)C1CCc2n[nH]cc2C1` (stereo not shown) [Example 228], the figure is 0.053 µM; as for `CC(C)Cc1ccc(C(=O)N(C2CC2)C2CCc3[nH]ncc3C2)cc1` (stereo not shown) [Example 237], 0.04 µM.

As usually defined, the IC50 is the concentration needed to halve the response being measured. A word on the inhibition: it is the share of the control response that was lost under treatment.
